The source of these data is ChEMBL document CHEMBL4665653, “VU6005806/AZN-00016130, an advanced M positive allosteric modulator (PAM) profiled as a potential preclinical development candidate” (Bioorg Med Chem Lett, 2019).

pEC50, pIC50: −log10 of the molar value. In brackets after ≈: the same amount, converted by molar mass.

Series [1] deals with T1, Muscarinic acetylcholine receptor M2 (Homo sapiens, UniProt P08172).
T1 sequence (P08172 whole entry): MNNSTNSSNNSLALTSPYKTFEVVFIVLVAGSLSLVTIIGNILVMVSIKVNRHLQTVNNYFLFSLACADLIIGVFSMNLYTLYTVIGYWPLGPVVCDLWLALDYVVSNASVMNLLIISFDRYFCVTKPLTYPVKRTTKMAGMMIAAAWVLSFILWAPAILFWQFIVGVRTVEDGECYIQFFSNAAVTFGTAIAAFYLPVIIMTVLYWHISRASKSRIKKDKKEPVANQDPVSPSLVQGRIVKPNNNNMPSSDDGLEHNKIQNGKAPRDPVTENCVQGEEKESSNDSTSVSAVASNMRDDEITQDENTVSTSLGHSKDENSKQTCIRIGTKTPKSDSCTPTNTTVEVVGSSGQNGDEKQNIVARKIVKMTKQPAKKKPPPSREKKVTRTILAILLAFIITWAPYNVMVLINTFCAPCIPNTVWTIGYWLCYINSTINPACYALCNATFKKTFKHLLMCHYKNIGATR
Description: Positive allosteric modulation of human M2 receptor/Gqi5 in presence of EC20 acetylcholine by calcium mobilization assay. For orientation: Calcium flux is commonly read through the fluorescence of an indicator in the cells.

For series [2], the species on record is Rattus norvegicus. In words: Displacement of [35S] dATPalphaS from P2Y receptor in Wistar rat brain at 10 uM incubated for 180 mins by radiometric scintillation analysis relative to control. It is filed as tissue-based.
The nature of series [3]: Positive allosteric modulation of dog M4 receptor. Details: species or system Canis lupus familiaris.
For series [4], the target named is Beta-1 adrenergic receptor (Homo sapiens) (UniProt P08588). Description: Displacement of [125I]Cyanopindolol from recombinant full length human beta1 adrenoceptor expressed in CHO-K1 cells assessed as residual binding level for radioligand at 10 uM after 120 mins by radiometric scintillation analysis relative to control. It is filed as cell-based. (In general: In a radioligand displacement assay an active substance lowers the binding of a labelled ligand.)
Sequence of Beta-1 adrenergic receptor (Homo sapiens) (P08588 whole entry, looked up): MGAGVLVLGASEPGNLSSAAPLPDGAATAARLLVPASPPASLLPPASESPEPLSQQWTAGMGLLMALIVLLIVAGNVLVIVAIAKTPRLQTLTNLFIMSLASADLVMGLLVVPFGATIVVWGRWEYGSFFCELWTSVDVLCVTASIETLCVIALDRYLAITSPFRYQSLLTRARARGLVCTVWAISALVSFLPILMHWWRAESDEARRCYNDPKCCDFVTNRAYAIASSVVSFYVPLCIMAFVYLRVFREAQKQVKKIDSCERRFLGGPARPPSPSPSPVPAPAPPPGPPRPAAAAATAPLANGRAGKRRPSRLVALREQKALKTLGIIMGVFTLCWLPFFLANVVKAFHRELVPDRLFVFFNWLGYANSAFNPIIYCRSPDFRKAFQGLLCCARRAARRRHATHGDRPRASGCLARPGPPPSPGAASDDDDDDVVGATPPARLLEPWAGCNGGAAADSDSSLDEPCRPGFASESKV

Series [5] is described as follows: Half life in dog. Conditions: in vivo. It is filed as ADME, Canis lupus familiaris.
For series [6], the species on record is Rattus norvegicus. In words: Displacement of [3H]-Rolipram from phosphodiesterases PDE4 receptor rolipram binding site in Wistar rat brain assessed as residual binding level for radioligand at 10 uM incubated for 60 mins. It is filed as tissue-based.
In series [7] the target is Endothelin-1 receptor (Homo sapiens) (UniProt P25101). Description: Displacement of [125I]endothelin-1 from recombinant full length human recombinant ETA receptor expressed in CHO-S cells assessed as residual binding level for radioligand at 10 uM measured after 120 mins by radiometric scintillation analysis relative to control. It is filed as cell-based.
The nature of series [8]: Fraction unbound in human plasma. It is filed as ADME, cell-free.
The target of series [9] is Adenosine receptor A2a (Homo sapiens) (UniProt P29274). Description: Displacement of [3H]CGS-21680 from full length recombinant human A2A receptor expressed in HEK293 cells assessed as residual binding level for radioligand at 10 uM measured after 90 mins radiometric scintillation analysis relative to control. It is filed as cell-based.
Sequence of Adenosine receptor A2a (Homo sapiens) (P29274 whole entry): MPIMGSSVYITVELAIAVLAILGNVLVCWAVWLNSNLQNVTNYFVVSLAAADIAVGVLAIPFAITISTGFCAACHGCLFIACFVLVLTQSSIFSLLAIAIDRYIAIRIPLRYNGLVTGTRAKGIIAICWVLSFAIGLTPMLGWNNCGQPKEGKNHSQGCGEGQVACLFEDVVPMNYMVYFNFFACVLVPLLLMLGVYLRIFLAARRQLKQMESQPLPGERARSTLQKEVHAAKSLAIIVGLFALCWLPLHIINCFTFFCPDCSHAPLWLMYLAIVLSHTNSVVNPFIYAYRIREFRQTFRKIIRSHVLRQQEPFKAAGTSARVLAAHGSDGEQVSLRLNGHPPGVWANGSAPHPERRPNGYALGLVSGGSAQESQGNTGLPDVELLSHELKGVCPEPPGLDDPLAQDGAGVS
For series [10], the target named is Acetylcholine receptor subunit alpha (Homo sapiens) (UniProt P02708). In words: Displacement of [125I]-alpha-Bungarotoxin from full length nAChR alpha1 receptor in human RD cell membranes assessed as residual binding level for radioligand at 10 uM measured after 120 mins by radiometric scintillation analysis relative to control.
Sequence of Acetylcholine receptor subunit alpha (Homo sapiens) (P02708 whole entry): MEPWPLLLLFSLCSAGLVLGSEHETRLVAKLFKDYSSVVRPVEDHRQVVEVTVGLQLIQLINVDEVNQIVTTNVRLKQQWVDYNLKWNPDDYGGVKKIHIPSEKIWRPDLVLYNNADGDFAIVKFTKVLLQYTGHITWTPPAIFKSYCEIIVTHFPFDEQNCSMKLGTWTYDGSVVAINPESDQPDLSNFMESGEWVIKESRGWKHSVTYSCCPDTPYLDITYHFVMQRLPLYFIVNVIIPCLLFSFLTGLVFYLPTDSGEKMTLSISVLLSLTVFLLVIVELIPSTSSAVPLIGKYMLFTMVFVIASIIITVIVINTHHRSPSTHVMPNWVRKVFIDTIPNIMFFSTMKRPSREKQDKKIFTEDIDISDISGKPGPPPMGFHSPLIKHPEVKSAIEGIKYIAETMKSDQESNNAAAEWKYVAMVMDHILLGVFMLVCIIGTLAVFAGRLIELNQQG
Series [11] has as its target Platelet-activating factor receptor (Homo sapiens) (UniProt P25105). Description: Displacement of [3H]-PAF from human PAF receptor assessed as residual binding level for radioligand at 10 uM incubated for 180 mins by scintillation counting analysis relative to control.
Series [12] can be described thus: Plasma clearance in cynomolgus monkey. It is filed as ADME, Macaca fascicularis. Conditions: read-out: CL(app).
The species entered for series [13] is Rattus norvegicus. In words: Displacement of [3H]-idazoxan from imidazoline I2 receptor in Wistar rat brain assessed as residual binding level for radioligand at 10 uM incubated for 30 mins by scintillation counting analysis relative to control. It is filed as tissue-based.
The subject of series [14] is HIT-T15. Description: Displacement of [3H]glyburide from KATP receptor in HIT-T15 Syrian hamster pancreatic B cell membranes assessed as residual binding level for radioligand at 10 uM after 120 mins by radiometric scintillation analysis relative to control. It is filed as tissue-based. Conditions: Mesocricetus auratus.
Series [15] deals with Muscarinic acetylcholine receptor M1 (Rattus norvegicus, UniProt P08482). Description: Positive allosteric modulation of rat M1 receptor.
Sequence of Muscarinic acetylcholine receptor M1 (P08482 whole entry): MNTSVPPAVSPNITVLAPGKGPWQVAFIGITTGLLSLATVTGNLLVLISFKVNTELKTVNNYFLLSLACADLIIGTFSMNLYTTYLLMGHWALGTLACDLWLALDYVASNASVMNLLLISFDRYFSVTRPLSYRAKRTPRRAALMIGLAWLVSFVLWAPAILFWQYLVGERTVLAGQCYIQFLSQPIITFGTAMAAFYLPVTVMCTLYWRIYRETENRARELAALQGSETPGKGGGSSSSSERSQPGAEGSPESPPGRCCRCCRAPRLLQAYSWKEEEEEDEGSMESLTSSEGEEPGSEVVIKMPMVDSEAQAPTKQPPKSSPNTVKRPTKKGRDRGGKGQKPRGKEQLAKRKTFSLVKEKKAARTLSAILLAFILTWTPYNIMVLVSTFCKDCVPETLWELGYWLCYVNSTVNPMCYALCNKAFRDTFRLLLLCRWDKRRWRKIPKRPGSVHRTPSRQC
The target of series [16] is Cytochrome P450 1A2 (Homo sapiens, UniProt P05177). Description: Inhibition of CYP1A2 (unknown origin). It is filed as ADME.
Series [17] deals with hERG (KCNH2) (Homo sapiens, UniProt Q12809). Description: Displacement of [3H]-Astemizole from human recombinant full length ERG channel expressed in HEK293 cells assessed as residual binding level for radioligand at 10 uM incubated for 60 mins by scintillation counting analysis relative to control. It is filed as cell-based. Conditions: probe [3H]-Astemizole, read-out: INH.
Sequence of hERG (KCNH2) (Q12809 whole entry): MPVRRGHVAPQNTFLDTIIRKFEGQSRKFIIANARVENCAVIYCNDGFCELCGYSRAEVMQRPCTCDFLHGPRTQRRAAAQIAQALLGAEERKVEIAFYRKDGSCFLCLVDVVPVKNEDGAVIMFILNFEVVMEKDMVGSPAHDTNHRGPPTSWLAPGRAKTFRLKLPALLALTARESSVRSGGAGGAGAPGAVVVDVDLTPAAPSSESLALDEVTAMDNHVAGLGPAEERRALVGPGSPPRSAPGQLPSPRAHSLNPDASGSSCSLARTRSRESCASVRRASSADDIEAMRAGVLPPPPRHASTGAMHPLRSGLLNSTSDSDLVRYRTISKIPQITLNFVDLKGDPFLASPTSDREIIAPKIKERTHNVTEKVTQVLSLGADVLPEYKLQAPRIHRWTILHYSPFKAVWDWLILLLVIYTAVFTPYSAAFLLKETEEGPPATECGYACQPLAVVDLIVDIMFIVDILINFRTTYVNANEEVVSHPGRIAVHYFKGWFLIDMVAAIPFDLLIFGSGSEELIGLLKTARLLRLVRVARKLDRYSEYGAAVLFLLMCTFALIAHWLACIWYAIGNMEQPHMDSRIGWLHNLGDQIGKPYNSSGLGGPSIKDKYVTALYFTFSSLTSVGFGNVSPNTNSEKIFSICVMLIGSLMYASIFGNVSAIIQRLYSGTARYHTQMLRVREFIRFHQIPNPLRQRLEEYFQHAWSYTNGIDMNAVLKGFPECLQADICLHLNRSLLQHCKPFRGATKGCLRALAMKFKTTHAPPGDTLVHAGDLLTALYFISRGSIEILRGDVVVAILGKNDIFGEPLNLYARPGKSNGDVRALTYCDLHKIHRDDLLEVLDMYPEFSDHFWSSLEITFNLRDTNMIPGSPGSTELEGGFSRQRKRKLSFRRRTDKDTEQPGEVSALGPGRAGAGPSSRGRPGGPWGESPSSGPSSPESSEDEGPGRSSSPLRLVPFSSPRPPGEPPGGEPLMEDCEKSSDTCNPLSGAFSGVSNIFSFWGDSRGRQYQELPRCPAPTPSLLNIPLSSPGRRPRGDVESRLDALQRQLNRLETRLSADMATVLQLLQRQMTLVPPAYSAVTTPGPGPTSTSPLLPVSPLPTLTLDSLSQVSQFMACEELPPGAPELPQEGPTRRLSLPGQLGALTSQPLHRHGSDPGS

Series [18] concerns the target T2, Muscarinic acetylcholine receptor M4 (Homo sapiens) (UniProt P08173).
T2 sequence (whole entry): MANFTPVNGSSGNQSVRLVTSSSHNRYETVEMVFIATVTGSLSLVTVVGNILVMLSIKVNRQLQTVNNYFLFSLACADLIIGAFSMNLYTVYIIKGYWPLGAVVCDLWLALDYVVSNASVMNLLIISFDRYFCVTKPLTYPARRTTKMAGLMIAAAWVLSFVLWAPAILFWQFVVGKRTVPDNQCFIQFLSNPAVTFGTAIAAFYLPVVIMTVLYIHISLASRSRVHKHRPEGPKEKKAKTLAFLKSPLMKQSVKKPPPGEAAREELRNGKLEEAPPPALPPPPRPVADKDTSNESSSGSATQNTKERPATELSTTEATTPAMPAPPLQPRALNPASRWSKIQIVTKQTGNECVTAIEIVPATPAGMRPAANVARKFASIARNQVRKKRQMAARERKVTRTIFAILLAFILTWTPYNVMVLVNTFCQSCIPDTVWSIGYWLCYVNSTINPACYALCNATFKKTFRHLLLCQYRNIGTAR
Description: Positive allosteric modulation of human M4 receptor/Gqi5 in presence of EC20 acetylcholine by calcium mobilization assay relative to acetylcholine. It is filed as functional. The note with it: filed as positive allosteric modulator.

For series [19], the target named is Androgen receptor (Homo sapiens) (UniProt P10275). Description: Displacement of [3H]methyltrienolone from androgen receptor in human LNCaP cells assessed as residual binding level for radioligand at 10 uM measured after 1200 mins radiometric scintillation analysis relative to control. It is filed as cell-based.
Sequence of Androgen receptor (Homo sapiens) (P10275 whole entry): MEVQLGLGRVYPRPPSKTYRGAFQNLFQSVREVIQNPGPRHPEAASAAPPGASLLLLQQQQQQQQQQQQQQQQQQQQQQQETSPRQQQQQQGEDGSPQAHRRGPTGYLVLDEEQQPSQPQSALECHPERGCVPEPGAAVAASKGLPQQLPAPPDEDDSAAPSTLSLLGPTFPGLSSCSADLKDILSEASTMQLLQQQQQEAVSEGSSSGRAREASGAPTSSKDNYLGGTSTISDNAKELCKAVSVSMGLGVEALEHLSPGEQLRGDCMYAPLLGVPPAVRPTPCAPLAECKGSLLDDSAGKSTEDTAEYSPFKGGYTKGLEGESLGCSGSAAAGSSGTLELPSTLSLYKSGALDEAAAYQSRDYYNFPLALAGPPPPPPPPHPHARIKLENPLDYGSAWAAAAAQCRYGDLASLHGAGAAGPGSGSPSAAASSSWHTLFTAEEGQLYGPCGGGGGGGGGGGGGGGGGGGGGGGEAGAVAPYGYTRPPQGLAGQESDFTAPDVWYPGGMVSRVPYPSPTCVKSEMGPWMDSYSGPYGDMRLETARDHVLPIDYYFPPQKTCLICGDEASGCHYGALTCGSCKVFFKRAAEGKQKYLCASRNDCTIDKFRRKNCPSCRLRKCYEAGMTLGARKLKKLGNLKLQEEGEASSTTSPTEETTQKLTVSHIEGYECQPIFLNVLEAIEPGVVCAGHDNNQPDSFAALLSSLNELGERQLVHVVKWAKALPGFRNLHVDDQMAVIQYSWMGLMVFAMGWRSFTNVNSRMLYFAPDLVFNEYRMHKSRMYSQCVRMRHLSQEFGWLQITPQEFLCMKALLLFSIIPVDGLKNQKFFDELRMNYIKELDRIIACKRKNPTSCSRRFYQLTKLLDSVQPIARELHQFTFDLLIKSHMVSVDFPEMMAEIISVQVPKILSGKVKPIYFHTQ
The target of series [20] is Beta-2 adrenergic receptor (Homo sapiens) (UniProt P07550). In words: Displacement of [3H]-(-)CGP 12177 from recombinant full length human adrenergic beta 2 receptor expressed in CHO-hNBR1 cells assessed as residual binding level for radioligand at 10 uM incubated for 60 mins by radiometric scintillation analysis relative to control. It is filed as cell-based.
Sequence of Beta-2 adrenergic receptor (Homo sapiens) (P07550 whole entry, looked up): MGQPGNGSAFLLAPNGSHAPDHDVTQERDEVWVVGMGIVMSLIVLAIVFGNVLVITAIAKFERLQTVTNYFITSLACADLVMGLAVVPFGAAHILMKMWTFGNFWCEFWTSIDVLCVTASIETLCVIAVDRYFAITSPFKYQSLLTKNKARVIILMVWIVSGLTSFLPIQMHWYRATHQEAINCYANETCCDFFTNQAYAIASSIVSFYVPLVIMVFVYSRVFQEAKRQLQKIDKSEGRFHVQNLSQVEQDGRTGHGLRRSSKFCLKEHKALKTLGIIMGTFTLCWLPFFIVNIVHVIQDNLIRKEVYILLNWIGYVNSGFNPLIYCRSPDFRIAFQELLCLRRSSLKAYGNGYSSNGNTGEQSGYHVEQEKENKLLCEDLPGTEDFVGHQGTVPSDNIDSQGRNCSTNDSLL
Series [21] can be described thus: Unbound brain-to-plasma concentration ratio in cynomolgus monkey. It is filed as ADME, Macaca fascicularis. The note with it: read-out: K(p,uu,brain).
Series [22] can be described thus: Solubility of the compound in simulated gastric fluid. It is filed as physicochemical.
The species named for series [23] is Rattus norvegicus. Description: Displacement of [3H]-Kainic acid from Glutamate ionotropic kainate receptor in Wistar rat brain assessed as residual binding level for radioligand at 10 uM incubated for 120 mins by scintillation counting analysis relative to control. It is filed as tissue-based.
Series [24] has as its target Histamine H2 receptor (Homo sapiens) (UniProt P25021). In words: Displacement of [125I]aminopotentidine full length recombinant human histamine H2 receptor expressed in CHO-K1 cells assessed as residual binding level for radioligand at 10 uM after 120 mins by scintillation counting analysis relative to control. It is filed as cell-based.

Sequence of Histamine H2 receptor (Homo sapiens) (P25021 whole entry): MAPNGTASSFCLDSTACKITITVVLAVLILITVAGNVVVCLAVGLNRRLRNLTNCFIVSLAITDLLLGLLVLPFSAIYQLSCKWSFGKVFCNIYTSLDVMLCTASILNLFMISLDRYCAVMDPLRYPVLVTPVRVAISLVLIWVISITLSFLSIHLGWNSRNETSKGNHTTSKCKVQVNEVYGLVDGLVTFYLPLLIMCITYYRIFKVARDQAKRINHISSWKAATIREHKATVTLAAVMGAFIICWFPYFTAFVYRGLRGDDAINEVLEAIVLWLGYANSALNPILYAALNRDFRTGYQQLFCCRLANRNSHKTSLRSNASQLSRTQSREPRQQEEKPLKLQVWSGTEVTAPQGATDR
Sequence of Platelet-activating factor receptor (Homo sapiens) (P25105 whole entry): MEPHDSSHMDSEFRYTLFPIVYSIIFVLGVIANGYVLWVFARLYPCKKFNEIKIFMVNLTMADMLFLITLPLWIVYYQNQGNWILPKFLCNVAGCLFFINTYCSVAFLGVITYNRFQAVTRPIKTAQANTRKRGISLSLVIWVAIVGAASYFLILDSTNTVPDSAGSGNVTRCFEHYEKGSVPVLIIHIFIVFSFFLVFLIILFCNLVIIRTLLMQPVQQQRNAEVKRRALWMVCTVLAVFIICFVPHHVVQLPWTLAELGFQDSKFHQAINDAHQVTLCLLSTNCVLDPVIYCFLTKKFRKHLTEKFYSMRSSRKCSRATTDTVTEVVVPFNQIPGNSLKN

Consider `COc1nnc2sc(C(=O)NC3CN(c4ncc(C(F)(F)F)cn4)C3)c(N)c2c1C`, for which the figures for the pEC50 in series [1], in series [3] and in series [15] were below 4.52, 7.06 and below 4.52, respectively. For the same compound, the Activity in series [2], in series [4], in series [6], in [7], in series [9] and in series [10] was above 50% each time. For the same compound, the Activity in [11], in [13], in [14], in [19], in series [20] and in [23] was above 50% each time. Also, the Activity in [24] is above 50%. In [5], this compound showed a half-life of 1 h. The same compound yielded a fraction unbound in [8] of 0.02. The clearance in series [12] is 16 mL/min/kg. Besides, the pIC50 in [16] is below 4.52. In addition, the activity at 1 h, 10 µM in series [17] is below 25%. Also, the %max in series [18] is 71%. Besides, in [21], the Kp uu turned out to be 1.5. This compound returned a solubility in series [22] of 15 µM (≈ 6.59 µg/mL).

By pEC50 is commonly meant the EC50 on a negative log10 scale, so that one unit is a factor of ten. The term half-life denotes the time needed for the level to fall by half in the phase considered. For orientation: fraction unbound means the share of the substance not bound to proteins or other matrix. For orientation: pIC50 means the IC50 on a negative log10 scale, so that one unit is a factor of ten. By solubility is commonly meant the concentration that dissolves in the medium under given conditions.
